The values below are quoted from earlier work in patent US20100130442A1, “Lung Injury Treatment” (priority 2007, published 2010).

Data set [1] concerns mechanical ventilation induced lung injury. The note with it: in vivo.
Data set [2] has as its system lung injury induced by intratracheal LPS in C57BL/6 mice. The note with it: spontaneously ventilating C57BL/6 mice.

As for `CCCCCCCCCCCCC/C=C/[C@@H](O)[C@@H](N)COP(=O)(O)O` [Sphingosine-1-Phosphate], the “mechanical ventilation induced lung injury” value in data set [1] is reported as “blocked”. In data set [2], the “lung injury induced by intratracheal LPS” value is “attenuates”.
